Measured values from DBAASP.
Values after ≈ are worked out from the molar mass of the structure shown. Blank lines part the entries; values can stand above or below the molecule they belong to.

How the values were obtained:
Assay in all cases: ≥ marks a high value that may be exact or a test limit, other limits are often not marked, values filed in µg/mL are converted to µM
[1] = system: Escherichia coli ATCC 25922
[2] = system: Bacillus subtilis ATCC 23857
Salmonella typhimurium = system: Salmonella typhimurium
[3] = system: Enterococcus faecalis ATCC 29212
[4] = system: Pseudomonas aeruginosa ATCC 27853
[5] = system: Acinetobacter baumannii ATCC 19606
[6] = system: Klebsiella pneumoniae ATCC 700603
[7] = system: Staphylococcus epidermidis ATCC 12228
[8] = system: Staphylococcus aureus ATCC 25923
Bacillus cereus = system: Bacillus cereus
Escherichia coli = system: Escherichia coli
[9] = system: Pseudomonas aeruginosa ATCC 9027
[10] = system: Salmonella enterica subsp. enterica serovar Typhimurium ATCC 14028
Klebsiella pneumoniae = system: Klebsiella pneumoniae
[11] = system: Staphylococcus aureus ATCC 6538

MIC [1]: 128 µM (≈ 162 µg/mL)
MIC [2]: 4 µM (≈ 5.06 µg/mL)
SMILES: CC[C@H](C)[C@H](NC(=O)CN)C(=O)N[C@H](C(=O)N[C@@H](CCCCN)C(=O)NCC(=O)N[C@H](C(=O)N[C@H](C(=O)N[C@@H](CCCCN)C(=O)N[C@H](C(=O)N[C@H](C(=O)N[C@@H](CCCCN)C(=O)N[C@@H](C)C(N)=O)[C@@H](C)CC)[C@@H](C)CC)[C@@H](C)CC)[C@@H](C)CC)[C@@H](C)CC [GIIKGIIKIIKA]

MIC (Salmonella typhimurium): 20.8 µM (≈ 49.3 µg/mL)
SMILES: CC[C@H](C)[C@H](NC(=O)[C@@H](NC(=O)[C@@H]1CCCN1C(=O)[C@@H](NC(=O)[C@@H]1CCCN1C(=O)[C@H](CCCCN)NC(=O)[C@H](CCCCN)NC(=O)[C@H](CO)NC(=O)CN)C(C)C)[C@@H](C)CC)C(=O)N[C@@H](Cc1ccc(O)cc1)C(=O)N[C@@H](C)C(=O)N[C@@H](CC(N)=O)C(=O)N[C@@H](CCCN=C(N)N)C(=O)N[C@@H](CCCN=C(N)N)C(=O)N[C@H](C(=O)NCC(=O)N[C@@H](CCCCN)C(=O)N[C@@H](C)C(=O)N[C@@H](CCC(N)=O)C(=O)N[C@@H](CCCN=C(N)N)C(=O)N[C@@H](CCSC)C(=O)O)[C@@H](C)O [GSKKPVPIIYANRRTGKAQRM]

MIC [1]: > 128 µM
MIC [2]: ≥ 32 µM
SMILES: CC[C@H](C)[C@H](NC(=O)CNC(=O)[C@@H](N)CS)C(=O)N[C@H](C(=O)N[C@@H](C)C(=O)NCC(=O)N[C@H](C(=O)N[C@H](C(=O)N[C@H](C(=O)N[C@@H](CCCCN)C(=O)N[C@H](C(=O)N[C@@H](CCCCN)C(=O)N[C@@H](CCCCN)C(=O)N[C@@H](CS)C(N)=O)[C@@H](C)CC)[C@@H](C)CC)[C@@H](C)CC)[C@@H](C)CC)[C@@H](C)CC [CGIIAGIIIKIKKC]

MIC [1]: 8 µM (≈ 11.5 µg/mL)
MIC [3]: 32 µM (≈ 45.9 µg/mL)
MIC [4]: 4 µM (≈ 5.74 µg/mL)
MIC [5]: 16 µM (≈ 22.9 µg/mL)
MIC [6]: 8 µM (≈ 11.5 µg/mL)
MIC [7]: 16 µM (≈ 22.9 µg/mL)
MIC [8]: 8 µM (≈ 11.5 µg/mL)
MIC [2]: 8 µM (≈ 11.5 µg/mL)
SMILES: CC(C)C[C@H](NC(=O)CN)C(=O)N[C@@H](Cc1c[nH]c2ccccc12)C(=O)N[C@@H](CCCCN)C(=O)N[C@@H](CCCN=C(N)N)C(=O)N[C@@H](Cc1c[nH]c2ccccc12)C(=O)N[C@@H](CCCCN)C(=O)N[C@@H](CCCCN)C(=O)N[C@@H](Cc1ccccc1)C(=O)N[C@@H](Cc1c[nH]c2ccccc12)C(N)=O [GLWKRWKKFW]

MIC [1]: 32 µM (≈ 42.2 µg/mL)
MIC [3]: 64 µM (≈ 84.3 µg/mL)
MIC [4]: 8 µM (≈ 10.5 µg/mL)
MIC [5]: 64 µM (≈ 84.3 µg/mL)
MIC [6]: 32 µM (≈ 42.2 µg/mL)
MIC [7]: 64 µM (≈ 84.3 µg/mL)
MIC [8]: 16 µM (≈ 21.1 µg/mL)
MIC [2]: 16 µM (≈ 21.1 µg/mL)
SMILES: CC[C@H](C)[C@H](NC(=O)[C@H](CCCN=C(N)N)NC(=O)[C@H](CCCN=C(N)N)NC(=O)[C@H](Cc1ccccc1)NC(=O)[C@H](Cc1ccccc1)NC(=O)CN)C(=O)N[C@@H](CCCCN)C(=O)N[C@H](C(=O)N[C@@H](Cc1ccccc1)C(=O)N[C@@H](Cc1ccccc1)C(N)=O)[C@@H](C)O [GFFRRIKTFF]

MIC [1]: 32 µM (≈ 43.8 µg/mL)
MIC [3]: 128 µM (≈ 175 µg/mL)
MIC [4]: 16 µM (≈ 21.9 µg/mL)
MIC [5]: 128 µM (≈ 175 µg/mL)
MIC [6]: 64 µM (≈ 87.5 µg/mL)
MIC [7]: 128 µM (≈ 175 µg/mL)
MIC [8]: 32 µM (≈ 43.8 µg/mL)
MIC [2]: ≥ 64 µM
SMILES: CC[C@H](C)[C@H](NC(=O)CN)C(=O)N[C@@H](CCCN=C(N)N)C(=O)N[C@@H](Cc1c[nH]c2ccccc12)C(=O)N[C@@H](CCCCN)C(=O)N[C@@H](Cc1ccccc1)C(=O)N[C@@H](Cc1c[nH]c2ccccc12)C(=O)N[C@@H](CCCCN)C(=O)N[C@@H](Cc1ccccc1)C(=O)N[C@H](C(N)=O)[C@@H](C)O [GIRWKFWKFT]

MIC (Bacillus cereus): ≥ 122 µM
MIC (Escherichia coli): > 122 µM
SMILES: CC[C@H](C)[C@H](NC(=O)[C@H](CO)NC(=O)[C@H](CS)NC(=O)[C@H](Cc1ccc(O)cc1)NC(=O)[C@@H](NC(=O)[C@H](C)NC(=O)[C@@H]1CCCN1C(=O)[C@H](Cc1ccccc1)NC(=O)[C@@H](NC(=O)[C@H](CCCCN)NC(=O)[C@H](CO)NC(=O)[C@H](C)NC(=O)[C@@H](NC(=O)[C@H](CCCN=C(N)N)NC(=O)CNC(=O)[C@H](CC(C)C)NC(=O)[C@H](C)NC(=O)[C@@H](N)CO)C(C)C)C(C)C)C(C)C)C(=O)N[C@H](C(=O)N[C@@H](CCCCN)C(=O)O)[C@@H](C)O [SALGRVASKVFPAVYCSITK]

MIC (Bacillus cereus): ≥ 115 µM
MIC (Escherichia coli): > 115 µM
SMILES: CC(C)[C@H](NC(=O)[C@H](Cc1ccccc1)NC(=O)[C@@H](NC(=O)[C@@H](NC(=O)[C@@H](NC(=O)[C@H](CCCCN)NC(=O)[C@H](C)NC(=O)[C@@H](N)[C@@H](C)O)C(C)C)C(C)C)C(C)C)C(=O)N[C@@H](CO)C(=O)N[C@@H](Cc1ccccc1)C(=O)N[C@@H](CO)C(=O)N[C@@H](Cc1ccc(O)cc1)C(=O)N[C@H](C(=O)N[C@H](C(=O)N1CCC[C@H]1C(=O)N[C@@H](CCCCN)C(=O)N[C@@H](CCCCN)C(=O)N[C@@H](CCCN=C(N)N)C(=O)N[C@@H](C)C(=O)N[C@@H](CS)C(=O)O)C(C)C)C(C)C [TAKVVVFVSFSYVVPKKRAC]

MIC (Bacillus cereus): ≥ 130 µM
MIC (Escherichia coli): > 130 µM
SMILES: CC[C@H](C)[C@H](NC(=O)[C@H](CC(C)C)NC(=O)[C@H](CO)NC(=O)[C@H](C)NC(=O)[C@@H](NC(=O)[C@H](C)NC(=O)CNC(=O)[C@H](CCCCN)NC(=O)[C@H](Cc1ccccc1)NC(=O)[C@H](CCCCN)NC(=O)[C@@H](NC(=O)[C@H](C)NC(=O)[C@@H](NC(=O)[C@@H](NC(=O)[C@@H]1CCCN1C(=O)[C@H](CO)NC(=O)[C@H](CO)NC(=O)[C@@H](NC(=O)CN)C(C)C)[C@@H](C)CC)C(C)C)C(C)C)C(C)C)C(=O)N[C@@H](CCCCN)C(=O)O [GVSSPIVAVKFKGAVASLIK]

MIC (Bacillus cereus): ≥ 127 µM
MIC (Escherichia coli): > 127 µM
SMILES: CC[C@H](C)[C@H](NC(=O)CNC(=O)[C@@H](NC(=O)[C@H](CCCCN)NC(=O)[C@H](C)NC(=O)[C@@H](NC(=O)[C@H](C)NC(=O)[C@H](CO)NC(=O)[C@H](CO)NC(=O)[C@H](Cc1ccccc1)NC(=O)[C@H](CC(C)C)NC(=O)[C@@H](NC(=O)[C@@H]1CCCN1C(=O)[C@@H](N)CC(C)C)C(C)C)[C@@H](C)CC)C(C)C)C(=O)N[C@@H](CCCCN)C(=O)N[C@@H](CC(C)C)C(=O)NCC(=O)N[C@@H](C)C(=O)N[C@@H](CCCCN)C(=O)N[C@H](C(=O)O)C(C)C [LPVLFSSAIAKVGIKLGAKV]

MIC [1]: 8 µM (≈ 12.2 µg/mL)
MIC [9]: 4 µM (≈ 6.09 µg/mL)
MIC [6]: 32 µM (≈ 48.7 µg/mL)
MIC [8]: 32 µM (≈ 48.7 µg/mL)
MIC [2]: 4 µM (≈ 6.09 µg/mL)
SMILES: CC[C@H](C)[C@H](NC(=O)[C@H](CCCCN)NC(=O)[C@H](CCCCN)NC(=O)[C@H](C)NC(=O)[C@@H](NC(=O)[C@H](C)NC(=O)[C@H](C)NC(=O)[C@H](CC(C)C)NC(=O)[C@H](CCCCN)NC(=O)[C@H](CCCCN)NC(=O)[C@H](CC(C)C)NC(=O)[C@H](CC(N)=O)NC(=O)[C@@H](N)CC(C)C)C(C)C)C(=O)N[C@@H](CC(C)C)C(N)=O [LNLKKLAAVAKKIL]

MIC [1]: > 128 µM
MIC [10]: > 128 µM
MIC (Klebsiella pneumoniae): > 128 µM
SMILES: CC[C@H](C)[C@H](NC(=O)[C@H](Cc1ccc(O)cc1)NC(=O)[C@@H](NC(=O)[C@H](CCCN=C(N)N)NC(=O)[C@H](CC(N)=O)NC(=O)[C@H](CC(N)=O)NC(=O)CN)C(C)C)C(=O)N1CCC[C@H]1C(=O)N[C@@H](CCC(N)=O)C(=O)N1CCC[C@H]1C(=O)N[C@@H](CCCN=C(N)N)C(=O)N1CCC[C@H]1C(=O)N[C@@H](Cc1cnc[nH]1)C(=O)N1CCC[C@H]1C(=O)N[C@@H](CCCN=C(N)N)C(=O)N[C@@H](CC(C)C)C(=O)O [GNNRVYIPQPRPHPRL]

MIC [1]: 4 µM (≈ 5.86 µg/mL)
MIC [9]: 16 µM (≈ 23.4 µg/mL)
MIC [6]: 16 µM (≈ 23.4 µg/mL)
MIC [8]: 32 µM (≈ 46.9 µg/mL)
MIC [2]: 4 µM (≈ 5.86 µg/mL)
SMILES: CC[C@H](C)[C@H](NC(=O)[C@H](CCCCN)NC(=O)[C@H](CCCCN)NC(=O)[C@H](C)NC(=O)[C@@H](NC(=O)[C@H](C)NC(=O)[C@H](CC(C)C)NC(=O)[C@H](CC(C)C)NC(=O)[C@H](C)NC(=O)[C@H](CCCCN)NC(=O)[C@H](CC(C)C)NC(=O)[C@H](CC(N)=O)NC(=O)[C@H](C)N)C(C)C)C(=O)N[C@@H](CC(C)C)C(N)=O [ANLKALLAVAKKIL]

MIC [1]: 8 µM (≈ 11.6 µg/mL)
MIC [3]: 16 µM (≈ 23.1 µg/mL)
MIC [4]: 4 µM (≈ 5.78 µg/mL)
MIC [5]: 8 µM (≈ 11.6 µg/mL)
MIC [6]: 8 µM (≈ 11.6 µg/mL)
MIC [7]: 8 µM (≈ 11.6 µg/mL)
MIC [8]: 4 µM (≈ 5.78 µg/mL)
MIC [2]: 8 µM (≈ 11.6 µg/mL)
SMILES: CC[C@H](C)[C@H](NC(=O)[C@H](CCCN=C(N)N)NC(=O)[C@H](CCCCN)NC(=O)[C@H](Cc1c[nH]c2ccccc12)NC(=O)[C@H](Cc1c[nH]c2ccccc12)NC(=O)CN)C(=O)N[C@@H](CCCCN)C(=O)N[C@H](C(=O)N[C@@H](Cc1c[nH]c2ccccc12)C(=O)N[C@@H](Cc1c[nH]c2ccccc12)C(N)=O)[C@@H](C)O [GWWKRIKTWW]

SMILES: CC(C)C[C@H](NC(=O)[C@H](C)NC(=O)[C@H](CC(C)C)NC(=O)[C@H](C)NC(=O)[C@H](CCCCN)NC(=O)[C@H](CCCCN)NC(=O)[C@H](C)NC(=O)[C@H](CC(C)C)NC(=O)[C@H](CCCCN)NC(=O)[C@H](C)NC(=O)[C@H](CC(C)C)NC(=O)[C@H](CCCCN)NC(=O)[C@H](CCCCN)NC(=O)[C@H](C)NC(=O)[C@@H](N)Cc1ccccc1)C(N)=O [FAKKLAKLAKKALAL]
MIC [11]: 62 µM (≈ 99.9 µg/mL)
MIC [9]: 15.5 µM (≈ 25 µg/mL)
